According to ChEMBL document CHEMBL1151214, “Pentacyclic triterpenoid esters from the fruits of Bruguiera cylindrica” (J Nat Prod, 2004):
Values after ≈ are worked out from the molar mass of the structure shown. Active and inactive are the calls of the source. The calls are words filed in the database; no cut-off is given here.

Columns and labels:
Assay type in all cases: functional, cell-based
NCI-H187 = assay: Cytotoxicity against human NCI-H187 cells by colorimetric method
BC = assay: Cytotoxicity against human BC cells by colorimetric method
KB = assay: Cytotoxicity against human KB cells by colorimetric method

Compound | Activity (NCI-H187) | Activity (BC) | Activity (KB) | IC50 (NCI-H187)
COc1cc(/C=C/C(=O)O[C@H]2CC[C@]3(C)[C@H]4CC[C@]5(C)C(=CC[C@@]6(C)CCC(C)(C)C[C@H]65)[C@]4(C)CC[C@H]3C2(C)C)ccc1O | inactive | inactive | inactive | 
CC1(C)CC[C@]2(C)CC=C3[C@]4(C)CC[C@H]5C(C)(C)[C@H](OC(=O)/C=C\c6ccc(O)cc6)CC[C@]5(C)[C@H]4CC[C@@]3(C)[C@@H]2C1 |  | inactive | inactive | 20 µg/mL (≈ 34.9 µM)
COc1cc(/C=C\C(=O)O[C@@H]2CC[C@]3(C)[C@H]4CC[C@]5(C)C(=CC[C@@]6(C)CCC(C)(C)C[C@H]65)[C@]4(C)CC[C@H]3C2(C)C)ccc1O |  | inactive | inactive | 12.2 µg/mL (≈ 20.2 µM)
CC1(C)CC[C@]2(C)CC=C3[C@]4(C)CC[C@H]5C(C)(C)[C@H](OC(=O)/C=C/c6ccc(O)cc6)CC[C@]5(C)[C@H]4CC[C@@]3(C)[C@@H]2C1 | inactive | inactive | inactive | 
COc1cc(/C=C/C(=O)O[C@@H]2CC[C@]3(C)[C@H]4CC[C@]5(C)C(=CC[C@@]6(C)CCC(C)(C)C[C@H]65)[C@]4(C)CC[C@H]3C2(C)C)ccc1O | inactive | inactive | inactive | 
